Activity calls are given as the source filed them.
Assays:
Assay type in all cases: functional
[1] = molecular target: Ribosomal protein S6 kinase alpha-3 (Homo sapiens, UniProt P51812);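 also: measured within a kinome-wide profiling panel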
[2] = molecular target: Dual specificity mitogen-activated protein kinase kinase 1 (Homo sapiens, UniProt Q02750); assay: Navigating the Kinome. Panel member name: MAP2K1
[3] = molecular target: Tyrosine-protein kinase JAK2 (Homo sapiens, UniProt O60674);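 also: JAK2 tested as one member of a kinase panel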
[4] = molecular target: Serine/threonine-protein kinase TBK1 (Homo sapiens, UniProt Q9UHD2); assay: Navigating the Kinome. Panel member name: TBK1
[5] = molecular target: ALK tyrosine kinase receptor (Homo sapiens, UniProt Q9UM73);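 also: ALK tested as one member of a kinase panel screen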
ALK tyrosine kinase receptor, sequence (Q9UM73 whole entry): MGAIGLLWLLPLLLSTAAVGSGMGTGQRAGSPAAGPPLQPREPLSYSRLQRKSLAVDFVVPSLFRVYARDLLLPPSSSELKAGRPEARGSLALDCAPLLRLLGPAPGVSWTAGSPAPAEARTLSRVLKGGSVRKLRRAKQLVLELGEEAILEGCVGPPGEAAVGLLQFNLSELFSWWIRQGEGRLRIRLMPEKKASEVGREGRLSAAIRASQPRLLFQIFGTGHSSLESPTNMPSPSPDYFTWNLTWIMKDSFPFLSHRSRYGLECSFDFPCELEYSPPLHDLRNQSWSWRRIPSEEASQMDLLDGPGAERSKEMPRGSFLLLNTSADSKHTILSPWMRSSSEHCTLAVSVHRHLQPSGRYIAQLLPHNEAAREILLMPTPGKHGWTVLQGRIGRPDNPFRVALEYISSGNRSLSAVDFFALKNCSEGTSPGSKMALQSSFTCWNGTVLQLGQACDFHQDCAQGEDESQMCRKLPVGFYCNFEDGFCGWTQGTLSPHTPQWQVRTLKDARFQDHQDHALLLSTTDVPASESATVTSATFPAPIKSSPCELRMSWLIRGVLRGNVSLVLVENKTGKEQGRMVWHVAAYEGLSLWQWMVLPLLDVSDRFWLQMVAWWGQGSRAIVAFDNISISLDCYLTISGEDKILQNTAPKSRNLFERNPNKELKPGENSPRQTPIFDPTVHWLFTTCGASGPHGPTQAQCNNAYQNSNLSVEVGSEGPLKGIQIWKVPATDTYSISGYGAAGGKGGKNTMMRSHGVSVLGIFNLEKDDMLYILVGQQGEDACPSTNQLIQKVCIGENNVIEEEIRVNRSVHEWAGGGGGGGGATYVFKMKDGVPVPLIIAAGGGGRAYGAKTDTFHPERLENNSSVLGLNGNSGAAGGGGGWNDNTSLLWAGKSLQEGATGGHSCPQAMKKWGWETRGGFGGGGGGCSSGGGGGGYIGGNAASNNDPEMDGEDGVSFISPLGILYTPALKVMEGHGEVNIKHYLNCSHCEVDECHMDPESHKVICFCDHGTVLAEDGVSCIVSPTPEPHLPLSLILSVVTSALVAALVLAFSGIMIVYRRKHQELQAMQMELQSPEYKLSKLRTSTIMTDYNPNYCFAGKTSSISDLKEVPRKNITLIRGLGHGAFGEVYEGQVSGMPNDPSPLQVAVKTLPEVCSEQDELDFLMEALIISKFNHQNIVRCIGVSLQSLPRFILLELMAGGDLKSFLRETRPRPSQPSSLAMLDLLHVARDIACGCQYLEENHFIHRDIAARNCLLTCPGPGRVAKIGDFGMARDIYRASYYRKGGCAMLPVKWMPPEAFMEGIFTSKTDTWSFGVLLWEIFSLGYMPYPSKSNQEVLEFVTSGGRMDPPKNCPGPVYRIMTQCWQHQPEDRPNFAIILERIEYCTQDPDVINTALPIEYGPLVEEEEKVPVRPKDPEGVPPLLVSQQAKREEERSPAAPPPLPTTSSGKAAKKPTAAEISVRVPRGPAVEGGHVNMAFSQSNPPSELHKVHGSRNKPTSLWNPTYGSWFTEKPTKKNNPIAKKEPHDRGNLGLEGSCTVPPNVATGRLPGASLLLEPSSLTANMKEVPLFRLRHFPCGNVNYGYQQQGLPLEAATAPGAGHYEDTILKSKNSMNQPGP

[6] = molecular target: Tyrosine-protein kinase receptor TYRO3 (Homo sapiens, UniProt Q06418);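 also: TYRO3 value obtained as one member of a kinome-wide profiling panel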
[7] = molecular target: Serine/threonine-protein kinase D3 (Homo sapiens, UniProt O94806);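 also: determined within a kinase panel screen, with PRKCN as the panel member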
[8] = molecular target: Death-associated protein kinase 3 (Homo sapiens, UniProt O43293);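 also: measured as one member of a kinome-wide profiling panel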
[9] = molecular target: Mitogen-activated protein kinase 8 (Homo sapiens, UniProt P45983);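 also: value comes from one member of a kinome-wide kinase profiling panel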
[10] = molecular target: T1, Aurora kinase A (Homo sapiens, UniProt O14965);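 also: value from the Navigating the Kinome kinase panel profiling, panel entry STK6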
T1 sequence (O14965 whole entry): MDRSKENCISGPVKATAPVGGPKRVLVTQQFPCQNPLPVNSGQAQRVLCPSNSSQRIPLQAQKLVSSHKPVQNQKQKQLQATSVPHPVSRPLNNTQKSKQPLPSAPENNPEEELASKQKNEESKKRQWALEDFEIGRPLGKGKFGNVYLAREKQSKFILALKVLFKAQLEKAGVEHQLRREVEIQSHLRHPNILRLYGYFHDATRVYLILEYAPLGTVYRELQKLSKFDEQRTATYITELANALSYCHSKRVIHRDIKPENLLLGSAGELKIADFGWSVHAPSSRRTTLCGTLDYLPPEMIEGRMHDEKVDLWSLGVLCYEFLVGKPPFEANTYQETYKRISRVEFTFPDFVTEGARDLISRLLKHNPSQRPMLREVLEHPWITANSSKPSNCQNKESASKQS

[11] = molecular target: Serine/threonine-protein kinase PAK 4 (Homo sapiens, UniProt O96013);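 also: value obtained within a kinome profiling panel in which PAK4 was one of the panel members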
[12] = molecular target: Fibroblast growth factor receptor 1 (Homo sapiens, UniProt P11362)
[13] = molecular target: Tyrosine-protein kinase JAK3 (Homo sapiens, UniProt P52333)
[14] = molecular target: LIM domain kinase 1 (Homo sapiens, UniProt P53667); assay: Navigating the Kinome. Panel member name: LIMK1
[15] = molecular target: Serine/threonine-protein kinase TAO1 (Homo sapiens, UniProt Q7L7X3)
[16] = molecular target: Glycogen synthase kinase-3 alpha (Homo sapiens, UniProt P49840);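 also: GSK3A result taken from a broad kinome-wide kinase panel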
Glycogen synthase kinase-3 alpha, sequence (P49840 whole entry): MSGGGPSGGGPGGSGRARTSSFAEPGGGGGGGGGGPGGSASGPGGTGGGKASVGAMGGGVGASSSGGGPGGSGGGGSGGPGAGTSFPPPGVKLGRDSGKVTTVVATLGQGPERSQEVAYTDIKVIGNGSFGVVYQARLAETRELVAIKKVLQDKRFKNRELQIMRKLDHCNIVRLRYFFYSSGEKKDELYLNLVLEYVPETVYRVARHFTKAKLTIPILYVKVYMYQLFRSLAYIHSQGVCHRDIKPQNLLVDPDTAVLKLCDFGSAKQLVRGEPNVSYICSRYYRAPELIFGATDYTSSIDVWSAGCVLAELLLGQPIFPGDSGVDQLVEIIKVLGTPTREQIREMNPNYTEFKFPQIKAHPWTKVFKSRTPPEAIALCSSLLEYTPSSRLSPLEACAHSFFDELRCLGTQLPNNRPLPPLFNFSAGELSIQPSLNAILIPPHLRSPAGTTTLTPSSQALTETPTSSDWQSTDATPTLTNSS

[17] = molecular target: Hepatocyte growth factor receptor (Homo sapiens, UniProt P08581);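 also: kinase panel profiling across the kinome, with MET as the panel member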
[18] = molecular target: Activated CDC42 kinase 1 (Homo sapiens, UniProt Q07912); assay: Navigating the Kinome. Panel member name: ACK1
[19] = molecular target: Platelet-derived growth factor receptor beta (Homo sapiens, UniProt P09619);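 also: value comes from a kinome panel, with PDGFRB tested as one panel member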
[20] = molecular target: Receptor-type tyrosine-protein kinase FLT3 (Homo sapiens, UniProt P36888);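 also: FLT3 was tested as one member of a kinome-wide kinase panel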
[21] = molecular target: Tyrosine-protein kinase ABL1 (Homo sapiens, UniProt P00519)
[22] = molecular target: Vascular endothelial growth factor receptor 2 (Homo sapiens, UniProt P35968)
Vascular endothelial growth factor receptor 2, sequence (P35968 whole entry): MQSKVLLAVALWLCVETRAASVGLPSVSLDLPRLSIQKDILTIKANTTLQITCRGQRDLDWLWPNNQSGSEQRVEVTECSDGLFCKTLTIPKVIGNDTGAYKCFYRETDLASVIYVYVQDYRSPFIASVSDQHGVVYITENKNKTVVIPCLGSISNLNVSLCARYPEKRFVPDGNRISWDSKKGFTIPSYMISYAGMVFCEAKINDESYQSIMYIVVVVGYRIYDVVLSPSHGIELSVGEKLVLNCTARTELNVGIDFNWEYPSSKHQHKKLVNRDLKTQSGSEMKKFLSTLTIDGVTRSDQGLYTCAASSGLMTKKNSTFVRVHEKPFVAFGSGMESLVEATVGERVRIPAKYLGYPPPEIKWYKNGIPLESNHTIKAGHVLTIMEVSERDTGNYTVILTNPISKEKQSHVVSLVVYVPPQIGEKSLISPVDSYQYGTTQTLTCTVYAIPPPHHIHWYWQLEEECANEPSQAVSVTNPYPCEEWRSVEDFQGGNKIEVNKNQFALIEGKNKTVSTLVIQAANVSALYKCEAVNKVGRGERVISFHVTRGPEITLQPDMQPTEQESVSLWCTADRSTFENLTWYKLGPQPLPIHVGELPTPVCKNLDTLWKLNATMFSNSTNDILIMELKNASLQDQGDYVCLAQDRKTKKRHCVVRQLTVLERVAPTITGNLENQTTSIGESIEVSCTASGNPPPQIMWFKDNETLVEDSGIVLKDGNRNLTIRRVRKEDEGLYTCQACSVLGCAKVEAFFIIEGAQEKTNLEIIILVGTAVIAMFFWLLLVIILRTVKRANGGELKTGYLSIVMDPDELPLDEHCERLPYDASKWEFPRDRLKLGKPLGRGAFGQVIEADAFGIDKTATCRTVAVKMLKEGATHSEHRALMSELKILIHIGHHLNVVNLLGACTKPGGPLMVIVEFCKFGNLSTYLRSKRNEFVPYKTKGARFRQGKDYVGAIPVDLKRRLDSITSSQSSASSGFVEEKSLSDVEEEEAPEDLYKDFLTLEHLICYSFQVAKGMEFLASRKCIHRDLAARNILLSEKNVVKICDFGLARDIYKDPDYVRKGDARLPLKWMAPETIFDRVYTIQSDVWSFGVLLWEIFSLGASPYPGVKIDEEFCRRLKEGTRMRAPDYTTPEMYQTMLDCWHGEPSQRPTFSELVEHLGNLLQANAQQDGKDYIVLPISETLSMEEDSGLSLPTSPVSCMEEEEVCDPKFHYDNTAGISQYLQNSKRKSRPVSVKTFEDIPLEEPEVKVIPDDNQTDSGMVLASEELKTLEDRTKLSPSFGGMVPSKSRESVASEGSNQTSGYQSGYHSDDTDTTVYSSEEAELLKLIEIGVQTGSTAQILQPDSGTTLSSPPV

[23] = molecular target: Cyclin-dependent kinase 5 (Homo sapiens, UniProt Q00535);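 also: CDK5 measured as one member of a kinase profiling panel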
Cyclin-dependent kinase 5, sequence (Q00535 whole entry): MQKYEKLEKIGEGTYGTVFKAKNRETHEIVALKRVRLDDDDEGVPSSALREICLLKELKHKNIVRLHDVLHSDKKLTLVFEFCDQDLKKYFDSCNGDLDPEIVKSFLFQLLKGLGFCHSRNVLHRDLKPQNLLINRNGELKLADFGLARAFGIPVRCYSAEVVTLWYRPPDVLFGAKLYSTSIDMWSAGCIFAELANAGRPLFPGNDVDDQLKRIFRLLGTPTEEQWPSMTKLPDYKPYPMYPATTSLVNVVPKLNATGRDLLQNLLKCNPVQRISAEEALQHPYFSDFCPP

[24] = molecular target: Dual specificity tyrosine-phosphorylation-regulated kinase 1B (Homo sapiens, UniProt Q9Y463); assay: Navigating the Kinome. Panel member name: DYRK1B
[25] = molecular target: Focal adhesion kinase 1 (Homo sapiens, UniProt Q05397);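 also: measured as one member of a kinome panel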
[26] = molecular target: Platelet-derived growth factor receptor alpha (Homo sapiens, UniProt P16234); assay: Navigating the Kinome. Panel member name: PDGFRA
[27] = molecular target: Leucine-rich repeat serine/threonine-protein kinase 2 (Homo sapiens, UniProt Q5S007);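 also: value from a broad kinome-wide panel profiling study in which LRRK2 was one of the kinases tested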
[28] = molecular target: Rho-associated protein kinase 1 (Homo sapiens, UniProt Q13464);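 also: measured within a broad kinome-wide panel profiling many kinases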
[29] = molecular target: Serine/threonine-protein kinase Nek2 (Homo sapiens, UniProt P51955)
Serine/threonine-protein kinase Nek2, sequence (P51955 whole entry): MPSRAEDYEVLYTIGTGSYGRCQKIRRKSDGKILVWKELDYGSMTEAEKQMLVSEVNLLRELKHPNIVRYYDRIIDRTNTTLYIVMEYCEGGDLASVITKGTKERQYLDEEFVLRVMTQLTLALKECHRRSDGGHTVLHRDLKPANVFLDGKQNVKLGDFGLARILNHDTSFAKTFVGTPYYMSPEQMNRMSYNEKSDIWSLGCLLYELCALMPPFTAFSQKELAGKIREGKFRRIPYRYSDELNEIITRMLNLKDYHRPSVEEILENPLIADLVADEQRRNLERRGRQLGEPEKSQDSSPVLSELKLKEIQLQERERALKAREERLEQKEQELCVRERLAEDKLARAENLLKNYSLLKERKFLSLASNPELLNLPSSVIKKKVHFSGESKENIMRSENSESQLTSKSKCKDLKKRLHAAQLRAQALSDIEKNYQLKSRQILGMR

[30] = molecular target: Cyclin-dependent kinase 8 (Homo sapiens, UniProt P49336); assay: Navigating the Kinome. Panel member name: CDK8
[31] = molecular target: Vascular endothelial growth factor receptor 1 (Homo sapiens, UniProt P17948);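 also: measured within a kinome-wide profiling panel, FLT1 as the panel member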
[32] = molecular target: Cyclin-dependent kinase 9 (Homo sapiens, UniProt P50750);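 also: value from the CDK9 entry of a kinome-spanning kinase panel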
[33] = molecular target: Dual specificity tyrosine-phosphorylation-regulated kinase 1A (Homo sapiens, UniProt Q13627);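 also: measured against DYRK1A as one member of a broad kinome profiling panel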
[34] = molecular target: Inhibitor of nuclear factor kappa-B kinase subunit epsilon (Homo sapiens, UniProt Q14164); assay: Navigating the Kinome. Panel member name: IKBKE
[35] = molecular target: Leukocyte tyrosine kinase receptor (Homo sapiens, UniProt P29376); assay: Navigating the Kinome. Panel member name: LTK
Leukocyte tyrosine kinase receptor, sequence (P29376 whole entry): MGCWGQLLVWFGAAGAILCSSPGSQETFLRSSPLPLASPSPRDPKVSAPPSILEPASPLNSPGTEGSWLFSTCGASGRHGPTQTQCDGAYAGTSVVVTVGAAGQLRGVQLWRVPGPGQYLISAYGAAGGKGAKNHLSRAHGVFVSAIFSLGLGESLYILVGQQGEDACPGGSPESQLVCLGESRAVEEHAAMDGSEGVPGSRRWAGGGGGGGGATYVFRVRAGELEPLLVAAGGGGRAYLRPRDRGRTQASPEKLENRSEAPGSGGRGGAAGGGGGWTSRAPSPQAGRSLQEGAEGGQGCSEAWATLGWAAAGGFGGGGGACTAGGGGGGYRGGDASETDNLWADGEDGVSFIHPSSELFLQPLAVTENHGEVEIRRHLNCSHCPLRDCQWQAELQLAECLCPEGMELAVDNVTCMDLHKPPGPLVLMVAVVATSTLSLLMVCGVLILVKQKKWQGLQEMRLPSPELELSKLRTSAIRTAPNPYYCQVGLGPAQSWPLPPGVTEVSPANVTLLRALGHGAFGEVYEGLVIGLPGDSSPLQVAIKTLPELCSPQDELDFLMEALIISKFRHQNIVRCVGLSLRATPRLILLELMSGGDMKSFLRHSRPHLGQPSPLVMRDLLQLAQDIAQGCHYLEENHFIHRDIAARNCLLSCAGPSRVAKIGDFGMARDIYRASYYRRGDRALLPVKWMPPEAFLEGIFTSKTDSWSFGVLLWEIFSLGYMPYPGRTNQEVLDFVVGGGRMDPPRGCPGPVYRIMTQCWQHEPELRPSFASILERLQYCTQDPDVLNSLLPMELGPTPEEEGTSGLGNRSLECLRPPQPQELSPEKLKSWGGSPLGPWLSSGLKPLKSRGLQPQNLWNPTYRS

SMILES	Ki [1]	Ki [2]	Ki [3]	Ki [4]	Ki [5]	Ki [6]	Ki [7]	Ki [8]	Ki [9]	Ki [10]	Ki [11]	Ki [12]	Ki [13]	Ki [14]	Ki [15]	Ki [16]	Ki [17]	Ki [18]	Ki [19]	Ki [20]	further results
O=c1[nH][nH]c2ccc(Br)cc12	31.6 µM (active)	25.1 µM (active)	25.1 µM (active)	31.6 µM (active)	79.4 µM (active)	10 µM (active)	3.16 µM (active)	7.94 µM (active)	25.1 µM (active)	7.94 µM (active)	50.1 µM (active)	31.6 µM (active)	25.1 µM (active)	3.16 µM (active)	79.4 µM (active)	39.8 µM (active)	12.6 µM (active)	31.6 µM (active)	63.1 µM (active)	79.4 µM (active)	Ki [21]: 39.8 µM (active); Ki [22]: 63.1 µM (active); Ki [23]: 3.16 µM (active); Ki [24]: 3.16 µM (active); Ki [25]: 31.6 µM (active); Ki [26]: 15.8 µM (active); Ki [27]: 3.98 µM (active); Ki [28]: 15.8 µM (active); Ki [29]: 6.31 µM (active); Ki [30]: 10 µM (active); Ki [31]: 7.94 µM (active); Ki [32]: 5.01 µM (active); Ki [33]: 1.58 µM (active); Ki [34]: 7.94 µM (active); Ki [35]: 5.01 µM (active)
COc1cc2c(cc1Nc1nc(Nc3cccc(F)c3C(N)=O)c3cc[nH]c3n1)N(C(=O)CN(C)C)CC2	0.631 µM (active)	> 3.16 µM (inactive)	> 2.51 µM (inactive)	> 3.16 µM (inactive)	0.00126 µM (active)	> 3.16 µM (inactive)	0.398 µM (active)	0.1 µM (active)	0.158 µM (active)	> 1.58 µM (inactive)	> 5.01 µM (inactive)	> 3.98 µM (inactive)	> 5.01 µM (inactive)	> 3.16 µM (inactive)	2 µM (active)	> 3.98 µM (inactive)	> 2.51 µM (inactive)	2 µM (active)	> 2 µM (inactive)	> 2.51 µM (inactive)	Ki [21]: > 2.51 µM (inactive); Ki [22]: > 2.51 µM (inactive); Ki [23]: > 3.16 µM (inactive); Ki [24]: 1.26 µM (active); Ki [25]: 0.0398 µM (active); Ki [26]: > 2.51 µM (inactive); Ki [27]: 0.00794 µM (active); Ki [28]: 2 µM (active); Ki [29]: > 3.16 µM (inactive); Ki [30]: > 3.98 µM (inactive); Ki [31]: > 3.98 µM (inactive); Ki [32]: > 1.58 µM (inactive); Ki [33]: > 1.58 µM (inactive); Ki [34]: > 3.16 µM (inactive); Ki [35]: 0.00158 µM (active)

— ChEMBL document CHEMBL1201862, “PubChem BioAssay data set” (2004)
